This is an account of results in article PMC11057141, “Untangling the mess of CGRP levels as a migraine biomarker: an in-depth literature review and analysis of our experimental experience” (The Journal of Headache and Pain, 2024).

No end group written: not given here.

Data set [1] relates to CGRP. On the set-up: method as in PMID 15689192. The conditions noted are these: MWA, ictal, cited from earlier work.
The subject of data set [2] is CGRP. Also noted: method as in PMID 8388188. Conditions: 8 migraineurs, ictal, subcutaneous sumatriptan, mean ± SE; pre-treatment 60 ± 8; cited from earlier work.
For data set [3], the system named is CGRP. The conditions noted are these: mean ± SEM, cited from earlier work.
Data set [4] relates to CGRP. The conditions noted are these: cited from earlier work; for plasma CGRP 4 months after treatment cessation (V2), median (IQR) / plasma CGRP at last injection (V1), median (IQR): EM and CM patients, controls 32.6(21.3–44.6). The source says: Table 1 Charasteristics of the studies measuring CGRP in migraine patients | column: Concentrations
Data set [5] concerns CGRP. Conditions: 32 MWA; exact values not displayed; cited from earlier work. The source says:
Table 1 Charasteristics of the studies measuring CGRP in migraine patients | column: Main findings relate to CGRP

Data set [6] can be described thus: Long-term storage of serum at -80°C, sandwich ELISA. The class given is in vitro ADME. Conditions: human serum. The procedure:
(§1) We tested 4 different ELISA kit references with serum samples, 2 based on competitive ELISA (Biorbyt, UK, ref: orb438605; BMA Biomedicals, Switzerland, ref: S-1198), specifically designed for the detection of total-CGRP, and 2 based on ELISA sandwich (Abbexa, UK, ref: abx257902; CUSABIO, China, ref: CSB-E08210h), designed for the detection of alpha and beta-CGRP, respectively. All 4 of these products were assayed multiple times (at least 4 for each kit reference) to analyse the optimal dilutions of the samples, their reproducibility and their reported concentrations. All the procedures were carried out strictly following the manufacturer’s instructions of use of their products, they were performed by the same researcher, using the same equipment, and in the same facilities. […] All the samples were measured in duplicate, obtained from morning blood extractions, 9–12 am, from patients in a fast of at least 12h. These samples were let to clot for 10–15 min, centrifuged at 3500 rpm for 10 min and then immediately stored at -80°C until assayed. A standard curve was generated for every single batch, and they were calculated using a 4-parameter logistic (4-PL) regression with r^2 > 0.999.
We assayed 11 consecutive samples from previous works (36.4% male; age range: 26–65) that had been stored at -80°C for more than 6 months and which had been assayed altogether before being stored for a month and before reaching this time point.
(In general: An ELISA detects its analyte on a solid surface through an enzyme-linked reagent.)

For data set [7] the following is noted: infused in humans; cited from earlier work. An excerpt: The relevance of the peptide goes beyond its use as a therapeutical target, having been proposed as a biomarker in migraine.
For data set [8] the following is noted: frozen samples; cited from earlier work. An excerpt:
Another point recurrently mentioned in the literature is the long-term stability of the molecules when frozen. […] This opens up the question about whether c ...

The nature of data set [9]: Influence of sample processing time: serum kept at 4°C before freezing at -80°C, sandwich ELISA. It is filed as in vitro ADME, human. The procedure:
as §1
We recruited 6 individuals without history of migraine and subjective absence of headache at the day of the sampling (50% male; age range: 24–65 years). […] The blood was then let to clot for 10 min at room temperature, then centrifuged at 3500 rpm for 10 min to obtain serum. Serum was divided into 4 tubes. First one was immediately stored at -80°C, the other three were kept in the refrigerator at 4°C for, 2, 4 and 24 h respectively before frozen. None of the samples were added peptidase inhibitor. These samples were measured by triplicate.

The subject of data set [10] is CGRP. On the set-up: method as in PMID 16472331. Conditions: MWA, mean ± SEM, cited from earlier work.
Setting [11] is: EM without aura, mean ± SD, T0 86.9 ± 24.1.
The mark [12] stands for this setting: healthy controls, mean ± SD, T0 87.9 ± 21.3.

With `CNS(=O)(=O)Cc1ccc2[nH]cc(CCN(C)C)c2c1` [sumatriptan], the “plasma CGRP 1 h after sumatriptan, responders” value with CGRP [1] (n = 6, mean ± SEM, before 16.9 ± 2.8) is 14.7 pmol/L. In addition, the “plasma CGRP 1 h after sumatriptan, non-responders” value in the data set with CGRP [1] (n = 13, mean ± SEM, before 24.3 ± 2.5) is reported as 23.8 pmol/L. Besides, the “plasma (JV) CGRP post-treatment” value in the data set with CGRP [2] was 40 pmol/L.
`O=[N+]([O-])OCC(CO[N+](=O)[O-])O[N+](=O)[O-]` [nitroglyceri, nitroglycerin]: in the data set on CGRP [3] (basal 15.1 ± 2.0), the “plasma CGRP, controls T1” value is on record as 17.5 pmol/L; the “plasma CGRP, controls T2” value is recorded as 16.5 pmol/L; the “plasma CGRP, controls T3” value was 15.3 pmol/L. For the same molecule, in the data set with CGRP [3] (basal 18.4 ± 1.7), the “plasma CGRP, migraineurs T1” value was 19.7 pmol/L; the “plasma CGRP, migraineurs T2” value is on record as 22.2 pmol/L; the “plasma CGRP, migraineurs T3” value was 21.0 pmol/L.
“Vasoactive intestinal peptide (HSDAVFTDNYTRLRKQMAVKKYLNSILN; ends and bridges not checked; UniProt P01282 125-152, looked up) [VIP]”: in the data set with CGRP [4] (setting [11]), the “plasma CGRP, VIP infusion Migraine T30” value is given as 94.2 pg/mL; the “plasma CGRP, VIP infusion Migraine T60” value is 95.1 pg/mL; the “plasma CGRP, VIP infusion Migraine T90” value is given as 87.5 pg/mL; the “plasma CGRP, VIP infusion Migraine T120” value is given as 88.7 pg/mL. Moreover, in the data set with CGRP [4] (setting [11]), the “plasma CGRP, VIP infusion Migraine T150” value was 85.1 pg/mL and the “plasma CGRP, VIP infusion Migraine T180” value is given as 83.3 pg/mL. For the same molecule, in the data set with CGRP [4] (setting [12]), the “plasma CGRP, VIP infusion HC T30” value is on record as 102.1 pg/mL; the “plasma CGRP, VIP infusion HC T60” value is listed as 109.3 pg/mL; the “plasma CGRP, VIP infusion HC T90” value is on record as 104.1 pg/mL; the “plasma CGRP, VIP infusion HC T120” value is given as 110.1 pg/mL. In addition, in the data set with CGRP [4] (setting [12]), the “plasma CGRP, VIP infusion HC T150” value is 97.8 pg/mL and the “plasma CGRP, VIP infusion HC T180” value is 98.2 pg/mL.
On to “Pituitary adenylate cyclase activating peptide-38 (HSDGIFTDSYSRYRKQMAVKKYLAAVLGKRYKQRVKNK; ends and bridges not checked; UniProt P18509 132-169, looked up) [PACAP38]”, for which the “effect of PACAP38 infusion on CGRP concentrations” value in the data set on CGRP [5] was “PACAP38 infusion do not causes changes in CGRP concentrations”.
In the case of Calcitonin gene-related peptide [CGRP], the “effect of storage at -80°C of more than 6 months on CGRP levels” value in data set [6] was “decrease”. In data set [7], the “effect of infusion in humans” value was “induction of migraine-like headaches”. The “effect of frozen storage of 8 months on CGRP concentration” value in [8] is given as “significantly decrease”. Also, in [9] (first 24 h at 4°C after clotting and immediate centrifugation), the “CGRP content in serum stored at 4°C” value is recorded as “preserved”.
In the case of “beta-CGRP: endogenous neuropeptide encoded in CALCB, differs from alpha-CGRP in 3 of 37 amino acids”, the “serum concentration, measured before one month of storage at -80°C” value in [6] (11 samples, ELISA Abbexa (alpha) / CUSABIO (beta), mean ± SD) came to 4.9 ± 2.0 pg/mL. Further, in data set [6] (same 11 samples, ELISA Abbexa (alpha) / CUSABIO (beta), mean ± SD, p < 0.01 vs first measurement), the “serum concentration after more than 6 months of storage at -80°C” value was 3.0 ± 1.3 pg/mL. Moreover, the “serum concentration after 2 h at 4°C” value in [9] (human serum, no peptidase inhibitor, 2 h at 4°C before -80°C, ELISA Abbexa (alpha) / CUSABIO (beta), mean ± SD, 6 subjects, triplicate) is 4.9 ± 1.7 pg/mL. The “serum concentration after 4 h at 4°C” value in data set [9] (human serum, no peptidase inhibitor, 4 h at 4°C before -80°C, ELISA Abbexa (alpha) / CUSABIO (beta), mean ± SD, 6 subjects, triplicate) is on record as 4.7 ± 1.5 pg/mL. In addition, in data set [9] (human serum, no peptidase inhibitor, 24 h at 4°C before -80°C, ELISA Abbexa (alpha) / CUSABIO (beta), mean ± SD, 6 subjects, triplicate), the “serum concentration after 24 h at 4°C” value stood at 4.4 ± 1.8 pg/mL. Also, the “serum concentration, deep frozen right away” value in [9] (human serum, no peptidase inhibitor, clot 10 min RT, 3500 rpm 10 min, immediately -80°C, ELISA Abbexa (alpha) / CUSABIO (beta), mean ± SD, 6 subjects, triplicate) is given as 4.6 ± 1.6 pg/mL.
For the molecule `CN(C)CCc1c[nH]c2ccc(Cn3cncn3)cc12` [rizatriptan], in the data set with CGRP [10] (before rizatriptan 7.4 ± 2.4), the “plasma (JV) CGRP, non-responders 1 h” value was 7.6 pmol/L; the “plasma (JV) CGRP, non-responders 2 h” value is 7.9 pmol/L; the “plasma (JV) CGRP, non-responders 4 h” value is 7.7 pmol/L; the “plasma (JV) CGRP, non-responders 6 h” value is listed as 7.3 pmol/L. The “plasma (JV) CGRP, non-responders 12 h” value with CGRP [10] (before rizatriptan 7.4 ± 2.4) is on record as 7.2 pmol/L. Moreover, in the data set with CGRP [10] (before rizatriptan 12.2 ± 3.2), the “plasma (JV) CGRP, responders 1 h” value is on record as 7.6 pmol/L; the “plasma (JV) CGRP, responders 2 h” value is on record as 3.4 pmol/L; the “plasma (JV) CGRP, responders 4 h” value is listed as 2.6 pmol/L; the “plasma (JV) CGRP, responders 6 h” value is 2.3 pmol/L. In the data set on CGRP [10] (before rizatriptan 12.2 ± 3.2), the “plasma (JV) CGRP, responders 12 h” value was 2.1 pmol/L.

B1: Galcanezumab: anti-CGRP monoclonal antibody (antibody, chains of the INN, looked up, V domains shown)
VH: QVQLVQSGAEVKKPGSSVKVSCKASGYTFGNYWMQWVRQAPGQGLEWMGAIYEGTGKTVYIQKFADRVTITADKSTSTAYMELSSLRSEDTAVYYCARLSDYVSGFGYWGQGTTVTVSS
VL: DIQMTQSPSSLSASVGDRVTITCRASKDISKYLNWYQQKPGKAPKLLIYYTSGYHSGVPSRFSGSGSGTDFTLTISSLQPEDFATYYCQQGDALPPTFGGGTKVEIK
As for B1, in the data set with CGRP [4], the “plasma CGRP 4 months after treatment cessation (V2), median (IQR)” value (shortened to “plasma CGRP 4 months”) is 1853.2 pg/mL and the “plasma CGRP at last injection (V1), median (IQR)” value (“plasma CGRP at last injection” below) is recorded as 5439.3 pg/mL.

B2: Erenumab: anti-CGRP(-receptor) monoclonal antibody (antibody, chains of the INN, looked up, V domains shown)
VH: QVQLVESGGGVVQPGRSLRLSCAASGFTFSSFGMHWVRQAPGKGLEWVAVISFDGSIKYSVDSVKGRFTISRDNSKNTLFLQMNSLRAEDTAVYYCARDRLNYYDSSGYYHYKYYGMAVWGQGTTVTVSS
VL: QSVLTQPPSVSAAPGQKVTISCSGSSSNIGNNYVSWYQQLPGTAPKLLIYDNNKRPSGIPDRFSGSKSGTSTTLGITGLQTGDEADYYCGTWDSRLSAVVFGGGTKLTVL
Consider B2, for which the “serum CGRP at T1, median (IQR)” value with CGRP [4] (94 erenumab treated EM and CM, basal 14.1 (8.2–33.9)) is reported as 13.8 pg/mL. In the data set on CGRP [4], the “plasma CGRP 4 months” value is recorded as 30.3 pg/mL and the “plasma CGRP at last injection” value is 31.2 pg/mL. In the data set with CGRP [4] (mean ± SD, basal 198.90 ± 27.89), the “salivary CGRP at M3, EM without depression” value is 235.05 pg/mL. For the same molecule, the “salivary CGRP at M3, CM with depression” value in the data set on CGRP [4] (n = 6, mean ± SD, basal 460.69 ± 57.24) was 446.99 pg/mL. In addition, the “salivary CGRP at M3, CM without depression” value with CGRP [4] (n = 10, mean ± SD, basal 194.34 ± 43.75) is recorded as 256.34 pg/mL.

B3: Fremanezumab: anti-CGRP monoclonal antibody (antibody, chains of the INN, looked up, V domains shown)
VH: EVQLVESGGGLVQPGGSLRLSCAASGFTFSNYWISWVRQAPGKGLEWVAEIRSESDASATHYAEAVKGRFTISRDNAKNSLYLQMNSLRAEDTAVYYCLAYFDYGLAIQNYWGQGTLVTVSS
VL: EIVLTQSPATLSLSPGERATLSCKASKRVTTYVSWYQQKPGQAPRLLIYGASNRYLGIPARFSGSGSGTDFTLTISSLEPEDFAVYYCSQSYNYPYTFGQGTKLEIK
B3: in the data set on CGRP [4], the “plasma CGRP 4 months” value was 34.3 pg/mL and the “plasma CGRP at last injection” value is given as 29.4 pg/mL.
